Assay results from PMC6061685 (Toxicological Sciences, 2018).
Entries after “also recorded” stand apart in the source; their conditions may differ. Like-named read-outs stand apart in the source and are kept apart here.

Experiments:
[1] = target: T1, aryl hydrocarbon receptor (AhR) (Rattus norvegicus, UniProt P41738); test: H4IIE AhR CALUX agonist assay; type: cell-based
T1 sequence (P41738 10-853): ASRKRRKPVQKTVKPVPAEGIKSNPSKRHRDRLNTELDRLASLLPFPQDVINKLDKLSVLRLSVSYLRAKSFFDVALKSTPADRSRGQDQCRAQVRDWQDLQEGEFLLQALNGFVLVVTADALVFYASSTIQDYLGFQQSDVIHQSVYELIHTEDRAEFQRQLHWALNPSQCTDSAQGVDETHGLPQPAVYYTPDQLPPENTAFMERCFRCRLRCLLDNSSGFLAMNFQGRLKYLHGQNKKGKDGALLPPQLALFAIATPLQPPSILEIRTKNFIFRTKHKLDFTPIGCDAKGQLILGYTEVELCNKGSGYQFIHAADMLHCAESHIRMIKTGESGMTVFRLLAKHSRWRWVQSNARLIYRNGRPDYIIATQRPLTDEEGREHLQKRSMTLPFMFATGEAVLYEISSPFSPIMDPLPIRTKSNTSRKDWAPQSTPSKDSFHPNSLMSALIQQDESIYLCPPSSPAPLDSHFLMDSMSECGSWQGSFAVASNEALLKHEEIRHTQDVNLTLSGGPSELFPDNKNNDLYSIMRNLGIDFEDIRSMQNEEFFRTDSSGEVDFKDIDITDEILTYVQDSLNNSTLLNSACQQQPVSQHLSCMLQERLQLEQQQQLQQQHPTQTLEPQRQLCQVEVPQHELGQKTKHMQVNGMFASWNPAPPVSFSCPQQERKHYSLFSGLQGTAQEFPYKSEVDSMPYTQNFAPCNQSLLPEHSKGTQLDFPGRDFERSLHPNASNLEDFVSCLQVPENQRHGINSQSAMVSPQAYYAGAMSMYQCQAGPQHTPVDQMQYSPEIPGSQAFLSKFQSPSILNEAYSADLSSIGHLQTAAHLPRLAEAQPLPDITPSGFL

AR [2] = conditions: exposure 0–10 µM; ref Vinggaard et al. (2000); cited from earlier work
AR [3] = conditions: exposure 0–100 µM; ref Kizu et al. (2003); cited from earlier work
ERα [4] = conditions: 10 mg/kg bw/day; ref Kummer et al. (2008); cited from earlier work
ERα [5] = conditions: exposure 0–10 µM; ref Charles et al. (2000); cited from earlier work
[6] = target: T2, estrogen receptor alpha (ERα) (Homo sapiens, UniProt P03372); test: U2OS ERα CALUX antagonist assay; type: cell-based; conditions: 24 h exposure; with EC50 concentration of E2 (2.7 × 10^−6 µg/ml)
T2 sequence (P03372 1-595): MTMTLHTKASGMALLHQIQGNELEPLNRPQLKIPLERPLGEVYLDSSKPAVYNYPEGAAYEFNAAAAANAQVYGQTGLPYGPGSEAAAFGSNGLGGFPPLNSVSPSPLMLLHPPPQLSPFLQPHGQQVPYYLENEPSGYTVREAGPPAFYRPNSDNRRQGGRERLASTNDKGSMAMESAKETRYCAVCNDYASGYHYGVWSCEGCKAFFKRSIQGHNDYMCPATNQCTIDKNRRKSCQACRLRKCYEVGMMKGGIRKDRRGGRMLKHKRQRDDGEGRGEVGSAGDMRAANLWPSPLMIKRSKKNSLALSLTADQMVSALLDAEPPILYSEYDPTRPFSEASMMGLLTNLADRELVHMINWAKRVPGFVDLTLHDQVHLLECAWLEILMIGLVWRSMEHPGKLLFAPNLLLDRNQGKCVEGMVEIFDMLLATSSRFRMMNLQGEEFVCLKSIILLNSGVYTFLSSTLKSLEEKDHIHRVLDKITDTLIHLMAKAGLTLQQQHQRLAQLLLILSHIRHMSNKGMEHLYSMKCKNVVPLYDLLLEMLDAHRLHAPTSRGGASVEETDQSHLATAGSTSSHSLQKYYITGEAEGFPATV

SMILES | Effects on AR (AR [2]) | Effects on AR (AR [3]) | also measured
c1ccc2c(c1)cc1ccc3cccc4ccc2c1c34 [BaP, benzo[a]pyrene, reference compound] | AR antagonist | AR antagonist (except for anthracene and pyrene) | EC50 [1]: 12.3 nM
c1cc2ccc3cccc4ccc(c1)c2c34 [Pyrene] | AR antagonist; also recorded: Phenanthrene, Anthracene, Pyrene: antagonize the AR activity just at the highest tested concentration | Anthracene and Pyrene show no AR-mediated activity. | –
c1ccc2c(c1)-c1cccc3cccc-2c13 [Fluoranthene] | AR antagonist | – | Effects on ERα (ERα [4]): ERα agonist (except for Benzo[k]fluoranthene)
Oc1ccc2ccc3c4ccccc4cc4ccc1c2c43 [3OH-BaP] | – | – | Effects on ERα (ERα [5]): Hydroxy metabolites of BaP, including 3OH-BaP, 9OH-BaP, and 9, 10OH-BaP, act as ERα agonist.
c1ccc2cc3c(cc2c1)-c1cccc2cccc-3c12 [Benzo[k]fluoranthene] | – | AR antagonist (except for anthracene and pyrene) | Effects on ERα (ERα [4]): Benzo[k]fluoranthene shows no ERα-mediated activity.
c1ccc2cc3c(ccc4ccccc43)cc2c1 [Benz[a]anthracene] | AR antagonist | – | –
Oc1ccc2cc3ccc4cccc5ccc(c2c1)c3c45 [9OH-BaP] | – | – | Effects on ERα (ERα [5]): Hydroxy metabolites of BaP, including 3OH-BaP, 9OH-BaP, and 9, 10OH-BaP, act as ERα agonist.
Cc1c2ccccc2c(C)c2c1ccc1ccccc12 [7, 12-dimethylbenz[a]anthracene] | AR antagonist | – | –
c1ccc2c(c1)ccc1ccccc12 [Phenanthrene] | AR antagonist; also recorded: Phenanthrene, Anthracene, Pyrene: antagonize the AR activity just at the highest tested concentration | – | –
C[C@]12CC[C@@H]3c4ccc(O)cc4C[C@@H](CCCCCCCCC[S+]([O-])CCCC(F)(F)C(F)(F)F)[C@H]3[C@@H]1CC[C@@H]2O (some centres unmarked) [Fulvestrant, fulvestrant] | – | – | ERα Antagonist Assay IC25 [6]: 0.011 ng/mL
c1ccc2cc3ccccc3cc2c1 [Anthracene] | AR antagonist; also recorded: Phenanthrene, Anthracene, Pyrene: antagonize the AR activity just at the highest tested concentration | Anthracene and Pyrene show no AR-mediated activity. | –
